# Data from PMC8504577, “Evaluation of a Clinically Relevant Drug–Drug Interaction Between Rosuvastatin and Clopidogrel and the Risk of Hepatotoxicity” (Frontiers in Pharmacology, 2021).
# Like-named read-outs stand apart in the source and are kept apart here.
# Assays:
# BCRP [1] = molecular target: T1, BCRP (Homo sapiens, UniProt Q9UNQ0); conditions: CP at 75 and 300 mg
# T1 sequence (Q9UNQ0 1-655): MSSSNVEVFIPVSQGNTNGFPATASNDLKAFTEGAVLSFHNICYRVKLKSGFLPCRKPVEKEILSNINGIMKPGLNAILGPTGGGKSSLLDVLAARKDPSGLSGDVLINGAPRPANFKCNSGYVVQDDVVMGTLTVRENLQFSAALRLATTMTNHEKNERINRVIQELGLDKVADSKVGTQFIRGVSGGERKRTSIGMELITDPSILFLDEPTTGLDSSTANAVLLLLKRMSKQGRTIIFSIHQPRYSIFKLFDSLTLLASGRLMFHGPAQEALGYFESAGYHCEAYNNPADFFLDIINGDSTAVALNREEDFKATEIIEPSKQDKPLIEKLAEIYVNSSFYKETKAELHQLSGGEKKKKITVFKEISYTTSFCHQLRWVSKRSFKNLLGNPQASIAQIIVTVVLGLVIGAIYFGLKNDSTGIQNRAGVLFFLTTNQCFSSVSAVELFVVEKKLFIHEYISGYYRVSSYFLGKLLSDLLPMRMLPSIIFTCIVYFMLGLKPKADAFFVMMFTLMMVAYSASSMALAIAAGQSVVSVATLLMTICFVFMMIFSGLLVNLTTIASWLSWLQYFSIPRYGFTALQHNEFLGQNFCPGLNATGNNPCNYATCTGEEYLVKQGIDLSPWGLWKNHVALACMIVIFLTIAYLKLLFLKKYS
# [2] = cited from earlier work; for I1, peak plasma concentration at steady state: ref Itkonen et al. (2015)
# BCRP [3] = molecular target: T1, BCRP; test: Inhibition of RSV transport in BCRP-expressing membrane vesicles; type: biochemical; set-up: purchased GenoMembrane Co., Ltd. (Yokohama, Japan) GM0008; host or cells: Sf9 insect cells
# Protocol: The vesicular transport activity was determined by the 96-well rapid filtration method in BCRP- and MRP2-expressing membrane vesicles. […] Meanwhile, 5 μL RSV (final concentration, 1 μM) and 20 μL reagent C2 were pre-incubated at 37°C for 5 min. Then, the transport was initiated by mixing them in a 50 μL reaction system and incubated for the designated time at 37°C. The transport was terminated by adding 200 μL of cold buffer B2 at 4°C. Then, the mixture was filtered using a 96-well filter plate. After washing the vesicles five times with 200 μL of cold buffer B2 at 4°C, the vesicles were lysed with 50 μL of 80% […] twice and then centrifuged at 2000 rpm/min for 2 min. Lysates were collected and then centrifuged at 12,000 rpm/min for 5 min. The supernatants were injected onto the LC-MS/MS. The same procedures were applied to AMP-containing samples except that reagent D2 was used instead of reagent C2. All experiments were performed in quadruplicate.
# Statistical analysis was performed using SPSS ver. 22.0 (IBM, Chicago, IL, United States).
# [4] = for I2, maximal theoretical gastrointestinal concentration: dose/250 ml; for Imax,u, unbound steady-state plasma peak concentration: fu×I1
# BCRP [5] = conditions: read-out: IC50 BCRP; BCRP-mediated RSV transport, Caco-2 cells; ref Elsby et al. (2016); cited from earlier work
# [6] = human, ref Pinheiro et al., 2012, Remsberg et al., 2013, cited from earlier work
# [7] = system: sodium taurocholate cotransporting polypeptide (NTCP); conditions: ref Elsby et al., 2016; cited from earlier work
# OATP1B1 = system: OATP1B1; set-up: method as in Elsby et al., 2016; conditions: ref Elsby et al., 2016; cited from earlier work
# [8] = Hepatobiliary transport study in rats; type: in vivo, Sprague-Dawley rats; conditions: for Tmax / Kp / Cmax / AUC(0-t): Sprague-Dawley, rat; for Tmax / Cmax / AUC(0-t): 5 mg/kg; for Kp: liver/plasma, read-out: Liver AUC0-5min/Plasma AUC0-5min; for AUC(0-t): read-out: Plasma AUC0-5min (converted); for CLint,bile / CLuptake,liver: integration plot method
# Protocol: For the hepatobiliary transport study, 24 rats were randomly assigned into eight groups (n = 3, each group, groups V to XII) and they received a p.o. dose as oral gavage of CP (27 mg/kg) for 20 days. The remaining 24 rats were also randomly assigned into eight groups (n = 3, each group, groups XIII to XX) and received the same volume of vehicle control for 20 days. […] On day 21, rats were anesthetized and incised along the abdominal midline, and bile duct intubation was performed prior to drug administration. […] Rats were euthanized at 0.25, 0.47, 0.67, 1, 1.5, 2, 2.5, and 5 min post dose. Arterial blood, bile, and liver samples were collected.
# Supplementary Table 2. Pharmacokinetic parameters of hepatobiliary transport study in rats. (n= 3) RSV CLuptake,liver and CLint,bile were calculated by integration plot methods.^[1, 2]
# [9] = in 5 days after p.o. administration, ref Sanofi-Aventis, 2011
# [10] = plasma, iv, i.v. RSV 5 mg/kg, with DDI (multiple p.o. CP 27 mg/kg)
# [11] = plasma, iv, i.v. RSV 5 mg/kg, without DDI
# [12] = i.v. RSV 5 mg/kg, with DDI (multiple p.o. CP 27 mg/kg)
structure (smiles),measurement,setting,value
"COC(=O)[C@H](c1ccccc1Cl)N1CCc2sccc2C1 [CP, clopidogrel]",[I2]/IC50 BCRP ratio,BCRP [1],> 10
same,"I1, peak plasma concentration at steady state",[2]; 75 mg CP,0.0010 [Itkonen et al. (2015)] μM
same,"I1, peak plasma concentration at steady state",[2]; 300 mg CP,0.0089 [Itkonen et al. (2015)] μM
same,Absorbed CP converted into inactive carboxylic acid metabolites (CPC) by CES1 in the liver,"[2]; at least, ref Jiang et al., 2015",85–90%
same,Excreted as inactive metabolites via feces,[2]; [9],~46%
same,Excreted as inactive metabolites via urine,[2]; [9],~50%
same,CP undergoing two-step oxidization by CYP enzymes to active metabolite,"[2]; ref Jiang et al., 2015",About 2%
same,Elimination half-life,"[2]; ref Sanofi-Aventis, 2011",360 min
same,IC50,"BCRP [3]; IC50 BCRP-mediated RSV transport, 1 μM RSV, membrane vesicles",~0.001 µM
same,inhibition at 0.001 μM,BCRP [3]; human,56.9%
same,"Iin,max,u, steady-state unbound liver inlet concentration",[4]; 75 mg CP,0.31 µM
same,"I2, maximal theoretical gastrointestinal concentration",[4]; 75 mg CP,932.19 µM
same,"Imax,u, unbound steady-state plasma peak concentration",[4]; 75 mg CP,0.00002 µM
same,"Iin,max,u, steady-state unbound liver inlet concentration",[4]; 300 mg CP,1.24 µM
same,"I2, maximal theoretical gastrointestinal concentration",[4]; 300 mg CP,"3,728.77 μM"
same,"Imax,u, unbound steady-state plasma peak concentration",[4]; 300 mg CP,0.00018 µM
same,IC50,BCRP [5],63 µM
"CC(C)c1nc(N(C)S(C)(=O)=O)nc(-c2ccc(F)cc2)c1/C=C/[C@@H](O)C[C@@H](O)CC(=O)O [RSV, rosuvastatin]",Increase of RSV AUC with concomitant CP,[6]; 20 mg RSV,2.0 fold
same,Increase of RSV Cmax with concomitant CP,[6]; 20 mg RSV,2.2 fold
same,Increase of RSV AUC with concomitant CP,[6]; 40 mg RSV,1.7 fold
same,Increase of RSV Cmax with concomitant CP,[6]; 40 mg RSV,1.3 fold
same,Individual contribution of NTCP to hepatic uptake,[7],0.21
same,Individual contribution of OATP1B1 to hepatic uptake,OATP1B1,0.38
same,Tmax,"[8]; liver, iv, i.v. RSV 5 mg/kg, with DDI (multiple p.o. CP 27 mg/kg), read-out: Liver Tmax (converted)",1.72 min
same,Tmax,"[8]; liver, iv, i.v. RSV 5 mg/kg, without DDI, read-out: Liver Tmax (converted)",2 min
same,Kp,"[8]; intravenous, i.v. RSV 5 mg/kg, with DDI (multiple p.o. CP 27 mg/kg)",1.38 ± 0.13
same,Kp,"[8]; iv, i.v. RSV 5 mg/kg, without DDI",1.72 ± 0.18
same,Cmax,[8]; [10],56 ± 9.15 µg/mL
same,AUC(0-t),[8]; [10],1710 ng·h/mL
same,Tmax,"[8]; plasma, iv, i.v. RSV 5 mg/kg, with DDI (multiple p.o. CP 27 mg/kg), read-out: Plasma Tmax (converted)",0.36 min
same,Cmax,[8]; [11],62.1 ± 24.2 µg/mL
same,AUC(0-t),[8]; [11],1190 ng·h/mL
same,Tmax,"[8]; plasma, iv, i.v. RSV 5 mg/kg, without DDI, read-out: Plasma Tmax (converted)",0.31 min
same,Bile0-5min (with DDI/without DDI)%,[8]; i.v. RSV 5 mg/kg,84.95%
same,Bile0-5min/Liver AUC0-5min (with DDI/without DDI)%,[8]; i.v. RSV 5 mg/kg,73.81%
same,"CLint,bile (with DDI/without DDI)%",[8]; i.v. RSV 5 mg/kg,60.81%
same,"CLuptake,liver (with DDI/without DDI)%",[8]; i.v. RSV 5 mg/kg,47.62%
same,Liver AUC0-5min (with DDI/without DDI)%,[8]; i.v. RSV 5 mg/kg,115.37%
same,Liver AUC0-5min/Plasma AUC0-5min (with DDI/without DDI)%,[8]; i.v. RSV 5 mg/kg,80.23%
same,Liver Cmax (with DDI/without DDI)%,[8]; i.v. RSV 5 mg/kg,94.79%
same,Liver Tmax (with DDI/without DDI)%,[8]; i.v. RSV 5 mg/kg,86.00%
same,Plasma AUC0-5min (with DDI/without DDI)%,[8]; i.v. RSV 5 mg/kg,143.73%
same,Plasma Cmax (with DDI/without DDI)%,[8]; i.v. RSV 5 mg/kg,90.18%
same,Plasma Tmax (with DDI/without DDI)%,[8]; i.v. RSV 5 mg/kg,116.13%
same,Bile0-5min,[8]; [12],218.80 ± 138.59 µg
same,Bile0-5min/Liver AUC0-5min,[8]; [12],1.55 ± 0.98 g/min
same,Liver AUC0-5min,[8]; [12],141196.71 ± 13631.53 ng·min/g
same,Liver Cmax,[8]; [12],36840.00 ± 1304.15 ng/g
same,"CLint,bile",[8]; [12],1.80 ± 1.10 g/min
same,"CLuptake,liver",[8]; [12],0.40 ± 0.15 mL/min/g
same,Bile0-5min,"[8]; i.v. RSV 5 mg/kg, without DDI",257.57 ± 104.42 µg
same,Bile0-5min/Liver AUC0-5min,"[8]; i.v. RSV 5 mg/kg, without DDI",2.10 ± 0.85 g/min
same,Liver AUC0-5min,"[8]; i.v. RSV 5 mg/kg, without DDI",122384.16 ± 13075.60 ng·min/g
same,Liver Cmax,"[8]; i.v. RSV 5 mg/kg, without DDI",38866.67 ± 3503.67 ng/g
same,"CLint,bile","[8]; i.v. RSV 5 mg/kg, without DDI",2.96 ± 1.50 g/min
same,"CLuptake,liver","[8]; i.v. RSV 5 mg/kg, without DDI",0.84 ± 0.45 mL/min/g
same,"Decrease of RSV CLint,bile in presence of CP","[8]; i.v. RSV, not significant",39.19%
same,"Decrease of RSV CLuptake,liver in presence of CP","[8]; i.v. RSV, not significant",52.38%
same,Decrease of RSV bile0–5min/liver AUC0–5min in presence of CP,"[8]; i.v. RSV, not significant",26.19%
same,Decrease of RSV liver AUC0–5min/plasma AUC0–5min in presence of CP,"[8]; i.v. RSV, not significant",19.77%
